The values below come from paper PMC8541628, “Development of Novel Quinoline-Based Sulfonamides as Selective Cancer-Associated Carbonic Anhydrase Isoform IX Inhibitors” (International Journal of Molecular Sciences, 2021).

One assay has as its system MCF-7. Briefly: 72 h MTT anti-proliferative assay under hypoxic conditions, MCF-7. In kind it is cell-based. Conditions: Homo sapiens, MCF7, mean ± S.D. of three experiments. As for the experimental part:
Therefore, QBS 11c and 13b were further screened for their potential in vitro anti-proliferative action against two breast cancer cell lines (MDA-MB-231 and MCF-7) under hypoxic conditions, exploiting a 72 h MTT assay protocol and using Doxorubicin as a positive control drug.
All adopted procedures for the conducted in vitro biological assays were performed as described earlier; CA (stopped-flow), cytotoxicity (MTT [37, 38]), and assessment of apoptotic markers assays, as well as induction of hypoxia with cobalt chloride, and were mentioned in the Supporting Materials.
1. Carbonic anhydrase inhibition assay
16) herein reported have were assayed utilizing an instrument of Applied Photophysics stopped-flow. The enzymes are recombinant proteins prepared in our lab. Phenol red (at a concentration of 0.2 mM) has been used as indicator, working at the absorbance maximum of 557 nm, with 20 mM Hepes (pH 7.5) as buffer, and 20 mM Na2SO4 (for maintaining constant the ionic strength), […]
parameters and inhibition constants. For each inhibitor at least six traces of the initial 5-10% of the reaction have been used for determining the initial velocity . Th e un cat aly zed rates were determined in the same manner and subtracted from the total observed rates. Stock solutions of inhibitor (0.1 mM) were prepared in distilled-deionized water and dilutions up to 0.01 nM were done thereafter with the assay buffer. Inhibitor and enzyme solutions were preincubated together for 15 min at room temperature prior to assay, in order to allow fo r the formation of the E-I complex. […]
Cells were sub-cultured with try psine /EDTA solution, counted with haemocy tometer and plated onto 96-well plates (5000 cells/well) and left overnight to form a semi-confluent […]
monolay er. […] DMSO (100 µl/well) was added to dissolve the formazan crystals with shaking for 10 min after which the absorbance was read at 590 nm against no cell blanks on a FLuo Star Optima microplate reader (BMG technologies, Germany). Cell proliferation was calculated comparing the OD values of the DMSO control wells and those of the samples
For orientation: Formazan colour is commonly taken as a measure of viable cells.

A further assay has as its system Bax. Briefly: Bax expression level (ELISA) in MDA-MB-231 cells. It is filed as cell-based, human. Conditions: 24 h incubation. As for the experimental part:
The levels of two members of Bcl-2 family proteins, the anti-apoptotic Bcl-2 protein, and the counteracting pro-apoptotic Bax protein, as well as the level of active caspase-3 (a key executioner protease) in MDA-MB-231 and MCF-7 cells have been assessed after incubation with QBS 11c and 13b for 24 h.
All adopted procedures for the conducted in vitro biological assays were performed as described earlier; CA (stopped-flow), cytotoxicity (MTT [37, 38]), and assessment of apoptotic markers assays, as well as induction of hypoxia with cobalt chloride, and were mentioned in the Supporting Materials. […]
3. Assessment of Apo ptotic Markers Levels
The levels of the pro-apoptotic markers (Bax and active caspase-3) as well as the anti-apoptotic marker Bcl-2 were determined using ELISA kits; Human Bax ELISA Kit (EIA-4487) DRG® Instruments, Bcl-2 ELISA Kit (99–0042), Zymed® Laboratories, Invitrogen Immunodetection, and Human Caspase-3 (active) ELISA Kit (KHO1091) Invitrogen®, per the manufacturer’s instructions. Breast cancer MDA-MB-231 and MCF-7 cells were cultured as a monolayer in T-25 flasks and were seeded to attain 30% confluency prior to treatment. Cells were then treated separately with MBFS 11b at its IC50 concentration for 24 h. At the end of treatment, cells were collected via trypsinization and centrifuged at 10,000 rpm. The pellet was then rinsed with PBS and lysed in RIPA lysis buffer at 4 °C for 45 min, then centrifuged at 14,000 rpm for 20 min to remove the cellular debris. Lysates were then collected and stored at −80 °C for later protein determination using Pierce BCA Protein Assay Kit according to manufacturer’s recommendations.
The cell lysate was diluted 10 times, and 100 μL ([…]) was added to the wells of […] separate microtiter plates for the three ELISA kits th at were pre-coated with primary antibodies specific to Bax, Bcl-2, and caspase-3 proteins, respectively. A secondary biotin-linked antibody specific to the protein captured by the primary antibody was further added to bind the […]
captured protein, forming a “sandwich” of specific antibodies around the desired protein in the cell lysate. The streptavidin-HRP complex was then used to bind the biotin-linked secondary antibody through its streptavidin portion. The HRP domain reacted with the added TMB substrate to form a colored product that measured at 450 nm by a plate reader ChroMate-4300 after the reaction was terminated via the addition of stop solution. […]
The ligand 3D structures were prepared by Maestro and their ionization states was checked with Epik at pH 7.4±0.5 then they were subjected to energy minimization using OPLS3 force field in Macromodel with a maximum number of 2500 conjugate gradient iteration and a convergence of 0.05 kcal mol−1 A−1. […]
(In general: In an ELISA, binding on a coated surface is turned into a signal by an enzyme label.)

In general, IC50 refers to the concentration that gives 50% inhibition. High values mean lower potency, low ones higher potency.

Regarding `NS(=O)(=O)c1cccc(Nc2ccnc3ccc(Cl)cc23)c1` [11c, 3-((6-chloroquinolin-4-yl)amino)benzenesulfonamide], in the assay with MCF-7, 430 ± 20 nM corresponded to half-maximal inhibition (IC50). For the same molecule, in the assay on Bax, the BAX was 420.9 ± 8.24 Pg/mg of Total Protein and the “BAX, folds of control” value was 7.1 folds of control.
Molecule `COc1ccc2nccc(Nc3ccc(S(N)(=O)=O)cc3)c2c1` [13b, 4-((6-methoxyquinolin-4-yl)amino)benzenesulfonamide] returned an IC50 with MCF-7 of 3690 ± 170 nM. Moreover, in the assay with Bax, the BAX is 373.5 ± 10.4 Pg/mg of Total Protein and the “BAX, folds of control” value is 6.3 folds of control.
